The structures appear in SMILES notation. Starred links: 1 amine or outer side, 2 acyl side, 3 side chain; linkers in the order of their positions; H or OH if unused. Non-standard residues stand in square brackets, D forms with d. Residues, ends and D or L forms follow the SMILES beside them. X13 = CC[C@H](C)[C@H](NC(=S)[C@@H]1CCCN1[*:1])C(=O)[*:2]; X17 = CC[C@H](C)[C@H](N[*:1])C(=S)N1CCC[C@H]1C(=O)[*:2]; AlaΨ(CSNH)Ala = C[C@H](NC(=S)[C@H](C)N[*:1])C(=O)[*:2]; X11 = CC[C@H](C)[C@H](N[*:1])C(=S)N[C@@H](C)C(=O)[*:2]; X2 = CC(C)C[C@H](NC(=S)[C@@H](CC(C)C)N[*:1])C(=O)[*:2]; X9 = O=C([C@@H]1CCCN1C(=S)[C@H](Cc1ccccc1)N[*:1])[*:2]; X14 = C[C@H](N[*:1])C(=S)N[C@@H](Cc1ccccc1)C(=O)[*:2]; X15 = CC(C)C[C@@H](NC(=S)[C@H]1CCCN1[*:1])C(=O)[*:2]; X19 = CC(C)C[C@H](NC(=S)[C@@H]1CCCN1[*:1])C(=O)[*:2]; X18 = C[C@@H](N[*:1])C(=S)N1CCC[C@H]1C(=O)[*:2]

The term logD denotes the decadic logarithm of the distribution of all forms, ionised or not, between an organic phase and buffer at a given pH. For orientation: Papp means a coefficient for how fast a substance crosses the barrier.

The nature of one series: physchem. To be noted: pH 7.4.
Series [1] can be described thus: PAMPA passive permeability.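 Further: passive permeability across an artificial membrane in 96-well pre-coated PAMPA plates, which lack transporters and efflux systems.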 The class given is in vitro ADME. In general terms: The PAMPA barrier holds no transporters, so it reflects passive diffusion.
Method: Encouraged by this, the passive permeability of the analogs was evaluated using an artificial membrane (PAMPA), which measures permeability of compounds in the absence of transporters and efflux systems[32].
96-well BD Corning® pre-coated PAMPA plates were used following the supplier’s protocol, details in Supplementary Information.
Series [2] is classed as physicochemical.

With `CN(CC(=O)O)C(=O)[C@@H](N)Cc1ccccc1` [3b], in the series “physchem”, the logD is -1.73.

In the series “physchem”, `CC(C)[C@H](NC(=S)[C@@H](N)Cc1ccccc1)C(=O)O` [5a] displayed a logD of -0.92.

Regarding `N[C@@H](Cc1ccccc1)C(=S)N[C@@H](CCC(=O)O)C(=O)O` [2a], the logD in the series “physchem” was -1.45.

As for `CC(C)C[C@@H]1NC(=O)[C@@H](CC(C)C)NC(=O)[C@H]2CCCN2C(=O)[C@H](CC(C)C)NC(=O)[C@@H](CC(C)C)NC(=O)[C@H](CC(C)C)NC(=S)[C@@H]2CCCN2C(=O)[C@@H](C)NC1=O` [12g] (cyclo(L[dA][X19][dL]L[dP][dL])), in the series “physchem”, the logD is 1.59. Further, the Papp in series [1] (Pe Avg) turned out to be 10.2 ×10⁻⁶ cm/s. In addition, the “% solubility” value in series [2] came out at 46%.

In the series “physchem”, `CSCC[C@H](NC(=S)[C@@H](N)Cc1ccccc1)C(=O)O` [6a] returned a logD of -0.79.

In the series “physchem”, `CC(C)C[C@@H]1NC(=O)[C@@H](CC(C)C)NC(=O)[C@H]2CCCN2C(=O)[C@H](CC(C)C)NC(=O)[C@@H](CC(C)C)NC(=O)[C@H](CC(C)C)NC(=O)[C@@H]2CCCN2C(=S)[C@@H](C)NC1=O` [12f] (cyclo(L[dL]L[dP][dL]L[X18])) gave a logD of 1.58. In series [1] (Pe Avg), this molecule displayed a Papp of 6.4 ×10⁻⁶ cm/s. In addition, in series [2], the “% solubility” value is recorded as 30%.

In “physchem”, `CC[C@H](C)[C@@H]1NC(=S)[C@@H]2CCCN2C(=O)[C@H]([C@@H](C)CC)NC(=O)[C@@H]2CCCN2C(=O)[C@H](Cc2ccccc2)NC(=O)[C@H](C)NC(=O)[C@H](C)NC1=O` [11g] (cyclo(AAFPI[X13])) displayed a logD of 0.29. Also, the Papp in series [1] (Pe (PAMPA vs logD7.4)) amounted to 0.35 ×10⁻⁶ cm/s; in series [1] (Pe Avg), 0.3 ×10⁻⁶ cm/s. Moreover, in series [2], the “% solubility” value was 93%.

`CC[C@H](C)[C@@H]1NC(=O)[C@@H]2CCCN2C(=O)[C@H]([C@@H](C)CC)NC(=O)[C@@H]2CCCN2C(=O)[C@H](Cc2ccccc2)NC(=O)[C@H](C)NC(=S)[C@H](C)NC1=O` [11b] (cyclo(FPIPI[AlaΨ(CSNH)Ala])) showed a logD in the series “physchem” of 0.28. Also, the Papp in series [1] (Pe (PAMPA vs logD7.4)) turned out to be 0.42 ×10⁻⁶ cm/s; in series [1] (Pe Avg), 0.4 ×10⁻⁶ cm/s. In addition, the “% solubility” value in series [2] is listed as 93%.

As for `CC(C)[C@H](NC(=O)[C@@H](N)Cc1ccccc1)C(=O)O` [compound 5] (H-Phe-Val-OH), the logD in the series “physchem” is -1.28.

Regarding `C[C@H](NC(=S)[C@@H](N)Cc1ccccc1)C(=O)O` [4a], the logD in “physchem” is -1.76.

For the molecule `N[C@@H](Cc1ccccc1)C(=S)N[C@@H](Cc1c[nH]c2ccccc12)C(=O)O` [7a], the logD in “physchem” was found to be 0.13.

`CC(C)C[C@@H]1NC(=O)[C@@H](CC(C)C)NC(=S)[C@H]2CCCN2C(=O)[C@H](CC(C)C)NC(=O)[C@@H](CC(C)C)NC(=O)[C@H](CC(C)C)NC(=O)[C@@H]2CCCN2C(=O)[C@@H](C)NC1=O` [12c] (cyclo(L[dA]PL[dL]L[X15])) came in with a logD in “physchem” of 2.3. The same molecule yielded a Papp in series [1] (Pe Avg) of 1.4 ×10⁻⁶ cm/s. Also, the “% solubility” value in series [2] came to 15%.

For `NCCCC[C@H](NC(=S)[C@@H](N)Cc1ccccc1)C(=O)O` [1a], in the series “physchem”, the logD was -2.12.

In the series “physchem”, `C[C@@H](C(=O)O)N(C)C(=O)[C@@H](N)Cc1ccccc1` [4b] came in with a logD of -1.76.

`NCCCC[C@H](NC(=O)[C@@H](N)Cc1ccccc1)C(=O)O` [compound 1] displayed a logD in “physchem” of -2.88.

On to `CN(C(=O)[C@@H](N)Cc1ccccc1)[C@@H](CCC(=O)O)C(=O)O` [2b], for which, in “physchem”, the logD was -2.14.

With `CC[C@H](C)[C@@H]1NC(=O)[C@@H]2CCCN2C(=S)[C@H]([C@@H](C)CC)NC(=O)[C@@H]2CCCN2C(=O)[C@H](Cc2ccccc2)NC(=O)[C@H](C)NC(=O)[C@H](C)NC1=O` [11f] (cyclo(AAFP[X17]I)), the logD in “physchem” stood at 0.37. Also, the Papp in series [1] (Pe Avg) is 1.1 ×10⁻⁶ cm/s. Besides, the “% solubility” value in series [2] is given as 76%.

In the case of `CC[C@H](C)[C@@H]1NC(=O)[C@@H]2CCCN2C(=O)[C@H]([C@@H](C)CC)NC(=O)[C@@H]2CCCN2C(=O)[C@H](Cc2ccccc2)NC(=S)[C@H](C)NC(=O)[C@H](C)NC1=O` [11c] (cyclo(A[X14]PIPI)), the logD in “physchem” worked out at 0.43. The Papp in series [1] (Pe Avg) came to 1 ×10⁻⁶ cm/s. In series [2], the “% solubility” value is on record as 76%.

On to `CC(C)[C@@H](C(=O)O)N(C)C(=O)[C@@H](N)Cc1ccccc1` [5b], for which the logD in “physchem” is -0.62.

In the case of `CC(C)C[C@@H]1NC(=O)[C@@H]2CCCN2C(=O)[C@@H](C)NC(=O)[C@H](CC(C)C)NC(=S)[C@@H](CC(C)C)NC(=O)[C@H]2CCCN2C(=O)[C@H](CC(C)C)NC(=O)[C@@H](CC(C)C)NC1=O` [12d] (cyclo(L[dL]L[dP][X2][dA]P)), the logD in “physchem” was 1.82. Besides, in series [1] (Pe Avg), the apparent permeability (Papp) is 8.9 ×10⁻⁶ cm/s. In series [2], the “% solubility” value is on record as 25%.

`CSCC[C@H](NC(=O)[C@@H](N)Cc1ccccc1)C(=O)O` [compound 6] (H-Phe-Met-OH) displayed a logD in the series “physchem” of -1.41.

With `CC[C@H](C)[C@@H]1NC(=O)[C@@H]2CCCN2C(=O)[C@H]([C@@H](C)CC)NC(=S)[C@@H]2CCCN2C(=O)[C@H](Cc2ccccc2)NC(=O)[C@H](C)NC(=O)[C@H](C)NC1=O` [11e] (cyclo(AAF[X13]PI)), the logD in the series “physchem” was determined as 0.58. Also, the results for the Papp in series [1] (Pe (PAMPA vs logD7.4)) and in series [1] (Pe Avg) were 0.83 ×10⁻⁶ cm/s and 0.8 ×10⁻⁶ cm/s, respectively. In addition, the “% solubility” value in series [2] is reported as 65%.

Molecule `N[C@@H](Cc1ccccc1)C(=S)NCC(=O)O` [3a] registered a logD in “physchem” of -1.61.

`N[C@@H](Cc1ccccc1)C(=O)N[C@@H](Cc1c[nH]c2ccccc12)C(=O)O` [compound 7] (H-Phe-Trp-OH) had a logD in “physchem” of -0.65.

For the molecule `CSCC[C@@H](C(=O)O)N(C)C(=O)[C@@H](N)Cc1ccccc1` [6b], the logD in “physchem” is -1.05.

As for `N[C@@H](Cc1ccccc1)C(=O)NCC(=O)O` [compound 3] (H-Phe-Gly-OH), the logD in the series “physchem” was -2.22.

`CC[C@H](C)[C@@H]1NC(=O)[C@@H]2CCCN2C(=O)[C@H](Cc2ccccc2)NC(=O)[C@H](C)NC(=O)[C@H](C)NC(=S)[C@H]([C@@H](C)CC)NC(=O)[C@@H]2CCCN2C1=O` [11a] (cyclo(AFPIP[X11])) came in with a logD in “physchem” of 0.55. The “Pe Avg” value in series [1] turned out to be 4.6 ×10⁻⁶ cm/s. The molecule further came in with a Papp in series [1] (Pe (PAMPA vs logD7.4)) of 4.67 ×10⁻⁶ cm/s. Also, the “% solubility” value in series [2] turned out to be 74%.

The molecule `N[C@@H](Cc1ccccc1)C(=O)N[C@@H](CCC(=O)O)C(=O)O` [compound 2] (H-Phe-Glu-OH) returned a logD in the series “physchem” of -2.56.

In the case of `CC(C)C[C@@H]1NC(=O)[C@@H](CC(C)C)NC(=O)[C@H]2CCCN2C(=O)[C@H](CC(C)C)NC(=S)[C@@H](CC(C)C)NC(=O)[C@H](CC(C)C)NC(=O)[C@@H]2CCCN2C(=O)[C@@H](C)NC1=O` [12a] (cyclo(L[dA]PL[X2][dP][dL])), the logD in the series “physchem” was found to be 1.34. In series [1] (Pe Avg), this molecule gave a Papp of 4.4 ×10⁻⁶ cm/s. Further, the “% solubility” value in series [2] was 69%.

`CN(C(=O)[C@@H](N)Cc1ccccc1)[C@@H](CCCCN)C(=O)O` [1b] registered a logD in “physchem” of -1.95.

The molecule `CN(C(=O)[C@@H](N)Cc1ccccc1)[C@@H](Cc1c[nH]c2ccccc12)C(=O)O` [7b] displayed a logD in “physchem” of 0.21.

In “physchem”, `CC[C@H](C)[C@@H]1NC(=O)[C@@H]2CCCN2C(=O)[C@H]([C@@H](C)CC)NC(=O)[C@@H]2CCCN2C(=S)[C@H](Cc2ccccc2)NC(=O)[C@H](C)NC(=O)[C@H](C)NC1=O` [11d] (cyclo(AA[X9]IPI)) displayed a logD of 0.33. Moreover, the Papp in series [1] (Pe Avg) was 0.4 ×10⁻⁶ cm/s. Also, in series [2], the “% solubility” value was 85%.
